Patent US5614548A, “Quaternary amine containing ether or ester lipid derivatives and therapeutic compositions” (priority 1994, dated 1997)
Where two headings read alike, the source gives them in different places.

Key:
KB cells = test: Cytostatic activity on KB cells; assay type: cell-based; conditions: Homo sapiens, read-out: IC50 KB
Description: (§1) All cells were grown in Eagle's minimum essential medium supplemented with 10% fetal bovine serum with the exception of HL-60 and K562-4 cells which were grown in RPMI 1640 medium supplemented with 10% fetal bovine serum. The KB and MH1 C1 cells, from a human nasopharyngeal carcinoma and rat hepatoma, respectively, were from American Type Culture Collection. The ChaGo cells, a human lung carcinoma, was generously provided by Dr. A. H. Tashjian. The human promyeloblastic leukemia cells, K562-4 were kindly supplied by Dr. Bismarck Lozzio. HL-60 cells, a human promyelocytic leukemia, and P388 cells, a mouse leukemia, were obtained from Dr. Y.-C. Cheng. The 77 cells were put into culture by us by excising the 7777, Morris hepatoma from a rat graciously supplied by the late Dr. H. P. Morris.
(§2) Cells were transferred or removed from monolayers for counting after a one or two minute incubation with 0.02% sodium ethylenediamine tetraacetate in phosphate-buffered saline to dislodge the cells. Flasks were seeded at a density of 1×10^3 cells per cm^2 or 2×10^4 per milliliter for suspension cultures. The HL-60 and K562-4 suspension cultures were used about 24 hours after seeding. The compounds to be tested were diluted to various concentrations and added to the monolayer cultures. All of the test compounds were dissolved in 10% dimethyl sulfoxide (DMSO) at concentrations that would give a final DMSO concentration of 0.1%. Control flasks contained 0.1% DMSO. Control cell replication was followed until approximately three doublings had occurred, and then all of the treated cells were counted.
(§3) The KB cells represented cells with low alkyl cleavage activity (less than the detectable level of 0.1-0.2 units per milligram protein by our assay procedure) and the 77 cells represented cells similar to normal cells with relatively high alkyl cleavage activity (1.6 units per milligram of protein). Our value for the cleavage activity of cultured 77 cells agrees well with the value of 1.4 units per milligram of protein reported by Soodsma et al, Cancer Res. 30, 309 (1970), for freshly excised 7777 Morris hepatoma tissue. In further confirmation of our assay procedure, we obtained a value of 12.6±4.1 units per milligram of protein in excised rat liver compared to 7.3 units per milligram of protein in rat liver measured by Soodsma et al.

[1] = test system: HL60 human leukemia cell line; test: HL60 cell growth inhibition (trypan blue, 48 h); assay type: cell-based; conditions: Homo sapiens, HL-60, 48 h, HL60, 48 hours; read-out: ID50 (the source's name)
Description: A number of the compounds disclosed herein have been tested against the HL60 human leukemia cell line to assess their cytotoxic potential. These analogs were investigated in parallel with ET-18-OMe which was used as the reference compound. The methodologies used in this investigation were the same as described in A. Noseda, M. Berens, C. Piantadosi, and E. J. Modest, Lipids 22, 878-883, 1987. In brief, HL60 cells at a concentration of […] were incubated in wells with one milliliter medium with the experimental drug in parallel with the same concentration of cells with ET-18-OMe (standard) or EtOH (control). After 48 hours of incubation the cells were counted using the trypan blue dye exclusion technique to determine the effect of the drug on cell growth. The experimental drug and ET-18-OMe were tested at the same concentrations, e.g., 10, 5, 2.5 and 1.25 μM.

77 cells = test: Cytostatic activity on 77 cells; assay type: cell-based, rat; conditions: for IC50: 77 cells, after controls doubled three times; for 77/KB: ratio of IC50 values ± standard error of the quotient
Description: as §1, §2, §3

Protein Kinase C = Protein Kinase C activity (32P incorporation into histone); assay type: biochemical, human (HL-60 cells)
Description: PKC was prepared and assayed as described previously. See Daniel, L. W. et al., Biochem. Biophys. Res. Comm. 151, 291 (1988). In brief, HL-60 cells were grown in 75 milliliter flasks, harvested and washed with ice-cold normal saline. After centrifugation (600×g, 5 minutes, 4° Centigrade), the cell pellet was resuspended (20 mM Tris-HCl, pH 7.5, 2 mM EDTA, 10 mM EGTA, 50 mM 2-mercaptoethanol, 2 mM phenylmethylsulfonyl fluoride) and sonicated for 20 s with a stepped microprobe sonciator. Unbroken cells were removed by centrifugation as above and the supernatant centrifuged (65,000×g, 90 minutes, 4° Centigrade). The supernatant from this step (cytosol) was then fractionated on a 1×8 cm DEAE-Sephacel column after addition to sucrose to a final concentration of 10%. After equilibrating the column (20 mM Tris, pH 7.5, 0.2 mM EDTA, 0.2 mM EGTA, 50 mM 2-mercaptoethanol, 10% sucrose), the sample was loaded and unbound material was washed through with 40 milliliters of the equilibrating buffer. The PKC was eluted by a gradient from 0-0.5M NaCl in the buffer described above. Fractions of 1 milliliter were collected at 25 milliliters per hour and 0.05 milliliter aliquots assayed for PKC activity as described below. The fractions with the highest activity were pooled and used in further experiments.
The assays were done at pH 7.5 in a total volume of 0.25 milliliter and all tubes contained 25 mM Tris, 10 mM MgCl2, 40 μg per milliliter histone, 10 μM ATP (including 1 μCi of [gamma-^32 P]-ATP), 0.1 mM CaCl2, 20 μg per milliliter phosphatidylserine, 0.05 milliliter of the PKC preparation and 2.5 μM of oleoylacetylglycerol (OAG). Enzymatic activity was determined as the incorporation of ^32 P from [gamma-^32 P]-ATP) into histone in the presence of Ca^2+, phosphatidylserine, and OAG. Reactions were initiated by the addition of the enzyme preparation and halted after 20 minutes at 30° Centigrade by the addition of 0.05 milliliters of bovine serum albumin (10 milligrams per milliliter) and 1 milliliter 25% ice-cold trichloroacetic acid. The tubes were kept on ice and then filtered in a millipore vacuum box using Millipore® HA filters and washed with 25% trichloroacetic acid. The radioactivity bound to the filters was determined by scintillation spectrometry in 5 milliliters Budget Solve®. […] The analog to be tested was dissolved in ethanol, and added directly into the reaction mixture before the addition of PKC. As a control, 0.1% ethanol was included in the samples with the enzyme but with no inhibitor.

[2] = KB cells, after controls doubled three times

CCCCCCCCCCCCCCCCCC(=O)OCC[N+](C)(C)CCO [II, 2-octadecanoyloxy-N,N-dimethyl-N-β-hydroxyethyl-1-ethyl ammonium iodide]
IC50 (KB cells; [2]): 16000 nM

CCCCCCCCCCCCCCCCOCCC[N+](C)(C)C [KLM 69, 3-hexadecyloxy-N,N,N-trimethyl-1-propyl ammonium bromide]
IC50 [1]: 1600 nM

CCCCCCCCCCCCCCCCOCC(C[N+](C)(C)CCO)OC (stereo not shown) [XII]
IC50 (77 cells): 1270 ± 410 nM
77/KB (77 cells): 4.9 ± 1.84
IC50 (KB cells; [2]): 260 ± 50 nM

CCCCCCCCCCCCCCCCOCC(C[N+](C)(C)CCO)OC (stereo not shown) [H]
Percent Protein Kinase C Activity Retained (Protein Kinase C; 1.25 μM): 107%
Percent Protein Kinase C Activity Retained (Protein Kinase C; 2.5 μM): 95%
Percent Protein Kinase C Activity Retained (Protein Kinase C; 5.0 μM): 87%
Percent Protein Kinase C Activity Retained (Protein Kinase C; 10.0 μM): 64%
Percent Protein Kinase C Activity Retained (Protein Kinase C; 20.0 μM): 42%
Percent Protein Kinase C Activity Retained (Protein Kinase C; 40.0 μM): 29%

CCCCCCCCCCCCOCC[N+](C)(C)CCO.[I-] [III, 2-dodecyloxy-N,N-dimethyl-N-β-hydroxyethyl-1-ethyl ammonium iodide]
IC50 (77 cells): 4730 ± 870 nM
77/KB (77 cells): 6.1 ± 1.15
IC50 (KB cells; [2]): 780 ± 30 nM

CC1(C)OCC(C[N+](C)(C)CCO)O1 (stereo not shown) [F]
Percent Protein Kinase C Activity Retained (Protein Kinase C; 1.25 μM): 88%
Percent Protein Kinase C Activity Retained (Protein Kinase C; 2.5 μM): 84%
Percent Protein Kinase C Activity Retained (Protein Kinase C; 5.0 μM): 87%
Percent Protein Kinase C Activity Retained (Protein Kinase C; 10.0 μM): 88%
Percent Protein Kinase C Activity Retained (Protein Kinase C; 20.0 μM): 96%
Percent Protein Kinase C Activity Retained (Protein Kinase C; 40.0 μM): 87%

CCCCCCCCCCCCCCCCOCC[N+](C)(C)CCO.[I-] [V, 2-hexadecyloxy-N,N-dimethyl-N-β-hydroxyethyl-1-ethyl ammonium iodide]
IC50 (77 cells): 1420 ± 500 nM
77/KB (77 cells): 4.3 ± 2.15
IC50 (KB cells; [2]): 330 ± 120 nM

CCCCCCCCCCCCCCCCCC1OCC(C[N+](C)(C)CCCO)O1 (racemic) [CJM 60, (±)-N-(2-heptadecyl-1,3-dioxolan-4-yl)methyl-N,N-dimethyl-gamma-hydroxypropyl ammonium bromide]
IC50 [1]: 6500 nM

CCCCCCCCCCCCCCCCCC1OCC(C[N+](C)(C)CCCO)O1 (stereo not shown) [G]
Percent Protein Kinase C Activity Retained (Protein Kinase C; 1.25 μM): 44%
Percent Protein Kinase C Activity Retained (Protein Kinase C; 2.5 μM): 43%
Percent Protein Kinase C Activity Retained (Protein Kinase C; 5.0 μM): 26%
Percent Protein Kinase C Activity Retained (Protein Kinase C; 10.0 μM): 12%
Percent Protein Kinase C Activity Retained (Protein Kinase C; 20.0 μM): 9%
Percent Protein Kinase C Activity Retained (Protein Kinase C; 40.0 μM): 9%

CCCCCCCCCCCCCCCCSCC(C[N+](C)(C)C)OC (stereo not shown) [D]
Percent Protein Kinase C Activity Retained (Protein Kinase C; 1.25 μM): 112%
Percent Protein Kinase C Activity Retained (Protein Kinase C; 2.5 μM): 88%
Percent Protein Kinase C Activity Retained (Protein Kinase C; 5.0 μM): 81%
Percent Protein Kinase C Activity Retained (Protein Kinase C; 10.0 μM): 74%
Percent Protein Kinase C Activity Retained (Protein Kinase C; 20.0 μM): 54%
Percent Protein Kinase C Activity Retained (Protein Kinase C; 40.0 μM): 29%

CCCCCCCCCCCCCCCCOCCC[n+]1ccccc1 [KLM 70, 1-(3-hexadecyloxypropyl) pyridium bromide]
IC50 [1]: 800 nM

CCCCCCCCCCCCCCCCSCC(C[N+](C)(C)CCCO)OCC (stereo not shown) [C]
Percent Protein Kinase C Activity Retained (Protein Kinase C; 1.25 μM): 78%
Percent Protein Kinase C Activity Retained (Protein Kinase C; 2.5 μM): 64%
Percent Protein Kinase C Activity Retained (Protein Kinase C; 5.0 μM): 67%
Percent Protein Kinase C Activity Retained (Protein Kinase C; 10.0 μM): 60%
Percent Protein Kinase C Activity Retained (Protein Kinase C; 20.0 μM): 59%
Percent Protein Kinase C Activity Retained (Protein Kinase C; 40.0 μM): 37%

CCCCCCCCCCCCCCOCC[N+](C)(C)CCO.[I-] [IV, 2-tetradecyloxy-N,N-dimethyl-N-β-hydroxyethyl-1-ethyl ammonium iodide]
IC50 (77 cells): 1530 ± 230 nM
77/KB (77 cells): 4.8 ± 1.94
IC50 (KB cells; [2]): 320 ± 120 nM

C[N+](C)(CCO)CCOc1ccccc1 [IX, 2-Phenoxy-N,N-dimethyl-N-β-hydroxyethyl-1-ethyl ammonium iodide]
IC50 (KB cells; KB): > 100000 nM

CCCCCCCCCCCCCCCCSCC(C[N+](C)(C)CCO)OC (stereo not shown) [A]
Percent Protein Kinase C Activity Retained (Protein Kinase C; 1.25 μM): 97%
Percent Protein Kinase C Activity Retained (Protein Kinase C; 2.5 μM): 90%
Percent Protein Kinase C Activity Retained (Protein Kinase C; 5.0 μM): 73%
Percent Protein Kinase C Activity Retained (Protein Kinase C; 10.0 μM): 60%
Percent Protein Kinase C Activity Retained (Protein Kinase C; 20.0 μM): 54%
Percent Protein Kinase C Activity Retained (Protein Kinase C; 40.0 μM): 42%

COC(COc1cccc2ccccc12)C[N+](C)(C)CCO (stereo not shown) [E]
Percent Protein Kinase C Activity Retained (Protein Kinase C; 1.25 μM): 99%
Percent Protein Kinase C Activity Retained (Protein Kinase C; 2.5 μM): 99%
Percent Protein Kinase C Activity Retained (Protein Kinase C; 5.0 μM): 83%
Percent Protein Kinase C Activity Retained (Protein Kinase C; 10.0 μM): 89%
Percent Protein Kinase C Activity Retained (Protein Kinase C; 20.0 μM): 87%
Percent Protein Kinase C Activity Retained (Protein Kinase C; 40.0 μM): 90%

CCCCCCCCCCCCCCCCOCC(C[N+]1(C)CCC(O)CC1)OCC (racemic) [CJM PIPER, (±)-1-methyl-1-(3-hexadecyloxy-2-ethoxypropyl)-4-hydroxy piperidinium iodide]
IC50 [1]: 2800 nM

CCCCCCCCCCCCCCCCCCSCC(C[N+](C)(C)CCCO)OC (racemic) [CJM 44, (±)-3-octadecylthio-2-methoxy-N,N-dimethyl-N-gamma-hydroxypropyl-1-propyl ammonium bromide]
IC50 [1]: 3400 nM

CCCCCCCCCCCCCCCCOCC[N+](C)(C)CCCCO.[I-] [VII, 2-hexadecyloxy-N,N-dimethyl-N-delta-hydroxybutyl-1-ethyl ammonium iodide]
IC50 (77 cells): 2270 ± 930 nM
77/KB (77 cells): 5.2 ± 2.50
IC50 (KB cells; [2]): 440 ± 110 nM
